# Test results published in patent US20260098034A1, “2H-BENZOTRIAZOLE DERIVATIVE, PREPARATION METHOD THEREFOR, AND PHARMACEUTICAL COMPOSITION CONTAINING SAME” (ORXES THERAPEUTICS CO., LTD., priority 2022, published 2026).
# Values joined by “and” are separate entries in the source; they are usually repeats but may differ in a detail not shown here. Identical values can stand only once.
# Test system: Wistar rats
# Experiment: PCA-induced Wistar rat premature ejaculation model
# Assay type: in vivo
# Conditions: for Actual number of ejaculations / Number of the seminal vesicle contractions / Seminal vesicle basal pressure / Seminal vesicle peak pressure / The first contraction latency period / The first ejaculation latency period: within 30 min after PCA induction, individual rats; for latency period of initial seminal vesicle contraction compared with the PE model group: FIG. 4
# Procedure: Male Wistar rats with a weight of about 300 g were adapted for one week before the experiment was started. On the day of the experiment, the animals were anesthetized with a combination of 20 mg/kg of Zoletil 50 via i.p. and 8 mg/kg of xylazine via i.p., and the body temperature was maintained at 37° C. with a thermal insulation blanket. Exposed common carotid artery was intubated with PE50 to monitor real-time arterial pressure (i.e. systolic pressure, diastolic pressure, and mean arterial pressure). The seminal vesicles and cavernosal muscles of the animals were exposed. The stable baselines of the pressure of the seminal vesicle and the cavernosal myoelectricity were recorded for 10 min. Then the drug was administered through the tail vein for the dapoxetine group, and the tested compound was orally administered for the tested compound group (for the PE model group, the drug was replaced with a solvent). After 1 min, for inducing PE modeling, 5 mg/kg of PCA was injected intraperitoneally, and then the seminal vesicle pressure curve and the change of bulbospongiosus EMG were continuously recorded for 30 min.
# • A. Within 30 min, the actual number of ejaculations of the animals and the latency period of the first ejaculation; • B. Within 30 min, the number of the seminal vesicle contractions, the latency period of the first contraction, the basal pressure and the peak pressure.
# The experimental data were expressed by means±S.E.M., and statistical analysis was performed by GraphPad Prism 7.0 software. Single factor variance analysis (One-way ANOVA) was used for comparison between multiple groups, and Dunnett't-test was used for statistical analysis in Post hoc test. Student's t-test was used for comparison between two groups. P<0.05 was considered as a significant difference.
# [1] = 0.125 mg/kg p.o. + PCA 5 mg/kg i.p.
# [2] = 0.5 mg/kg p.o. + PCA 5 mg/kg i.p.
# [3] = 2 mg/kg p.o. + PCA 5 mg/kg i.p.
compound,measurement,setting,value
c1ccc2nn(CCCCN3CCN(c4noc5ccccc45)CC3)nc2c1 [Compound A001],Actual number of ejaculations,[1],8 and 9 and 11 (2×) and 10
same,Number of the seminal vesicle contractions,[1],10 and 11 and 12 and 13 and 16
same,Seminal vesicle basal pressure,[1],6.69 mmHg and 7.04 mmHg and 7.28 mmHg and 6.91 mmHg and 7.78 mmHg
same,Seminal vesicle peak pressure,[1],17.17 mmHg and 21.45 mmHg and 22.67 mmHg and 23.39 mmHg and 20.58 mmHg
same,The first contraction latency period,[1],784 s and 788 s and 605 s and 517 s and 839 s
same,The first ejaculation latency period,[1],996 s and 726 s and 766 s and 823 s and 969 s
same,Actual number of ejaculations,[2],0 (2×) and 2 (2×) and 3
same,Number of the seminal vesicle contractions,[2],0 (2×) and 5 and 4 and 6
same,Seminal vesicle basal pressure,[2],3.88 mmHg and 4.19 mmHg and 5.77 mmHg and 5.08 mmHg and 5.68 mmHg
same,Seminal vesicle peak pressure,[2],4.89 mmHg and 5.09 mmHg and 11.06 mmHg and 16.57 mmHg and 14.89 mmHg
same,The first contraction latency period,[2],1800 s (2×) and 1298 s and 1147 s and 1125 s
same,The first ejaculation latency period,[2],1800 s (2×) and 1399 s and 1311 s and 1291 s
same,Actual number of ejaculations,[3],2 and 0 (4×)
same,Number of the seminal vesicle contractions,[3],4 and 0 and 1 (3×)
same,Seminal vesicle basal pressure,[3],6.88 mmHg and 4.68 mmHg and 4.38 mmHg and 4.92 mmHg and 3.98 mmHg
same,Seminal vesicle peak pressure,[3],18.65 mmHg and 6.99 mmHg and 6.07 mmHg and 7.32 mmHg and 6.05 mmHg
same,The first contraction latency period,[3],968 s and 1800 s and 1687 s and 1774 s and 1629 s
same,The first ejaculation latency period,[3],1055 s and 1800 s (4×)
Fc1ccc2c(C3CCN(CCCn4nc5ccccc5n4)CC3)noc2c1 [Compound A002],Actual number of ejaculations,[1],2 (2×) and 6 and 3 and 5
same,Number of the seminal vesicle contractions,[1],5 (2×) and 6 (2×) and 3
same,Seminal vesicle basal pressure,[1],5.88 mmHg and 6.10 mmHg and 6.02 mmHg and 4.66 mmHg and 3.97 mmHg
same,Seminal vesicle peak pressure,[1],12.33 mmHg and 16.17 mmHg and 18.07 mmHg and 12.06 mmHg and 9.88 mmHg
same,The first contraction latency period,[1],1266 s and 833 s and 825 s and 1198 s and 1499 s
same,The first ejaculation latency period,[1],1422 s and 933 s and 966 s and 1276 s and 1345 s
same,Actual number of ejaculations,[2],2 and 3 and 1 and 0 (2×)
same,Number of the seminal vesicle contractions,[2],3 and 4 and 2 and 0 (2×)
same,Seminal vesicle basal pressure,[2],5.76 mmHg and 5.88 mmHg and 5.79 mmHg and 3.67 mmHg and 3.87 mmHg
same,Seminal vesicle peak pressure,[2],12.54 mmHg and 11.66 mmHg and 7.05 mmHg and 4.27 mmHg and 5.11 mmHg
same,The first contraction latency period,[2],1176 s and 1307 s and 1355 s and 1800 s (2×)
same,The first ejaculation latency period,[2],1233 s and 1346 s and 1432 s and 1800 s (2×)
same,Actual number of ejaculations,[3],0
same,Number of the seminal vesicle contractions,[3],2 and 0 (4×)
same,Seminal vesicle basal pressure,[3],4.15 mmHg and 4.12 mmHg and 4.85 mmHg and 4.11 mmHg and 3.93 mmHg
same,Seminal vesicle peak pressure,[3],8.87 mmHg and 6.08 mmHg and 5.09 mmHg and 4.77 mmHg and 5.03 mmHg
same,The first contraction latency period,[3],1568 s and 1800 s (4×)
same,The first ejaculation latency period,[3],1800 s
same,latency period of initial seminal vesicle contraction compared with the PE model group,high dose group (2.0 mg/kg p.o.),significant increase
same,latency period of initial seminal vesicle contraction compared with the PE model group,"low dose group (0.125 mg/kg p.o.), P>0.05",no statistically significant differences
same,latency period of initial seminal vesicle contraction compared with the PE model group,medium dose group (0.5 mg/kg p.o.),significant increase
Fc1ccc2c(C3CCN(CCCCn4nc5ccccc5n4)CC3)noc2c1 [Compound A003],Actual number of ejaculations,[1],0 (2×) and 4 (2×) and 5
same,Number of the seminal vesicle contractions,[1],3 (2×) and 8 (2×) and 7
same,Seminal vesicle basal pressure,[1],3.97 mmHg and 3.78 mmHg and 5.98 mmHg and 5.59 mmHg and 5.17 mmHg
same,Seminal vesicle peak pressure,[1],4.08 mmHg and 4.25 mmHg and 16.58 mmHg and 14.17 mmHg and 18.06 mmHg
same,The first contraction latency period,[1],1458 s and 1525 s and 707 s and 658 s and 735 s
same,The first ejaculation latency period,[1],1800 s (2×) and 865 s and 778 s and 806 s
same,Actual number of ejaculations,[2],6 (2×) and 2 and 0 (2×)
same,Number of the seminal vesicle contractions,[2],9 (2×) and 5 and 0 (2×)
same,Seminal vesicle basal pressure,[2],5.88 mmHg and 6.03 mmHg and 5.19 mmHg and 3.9 mmHg and 4.2 mmHg
same,Seminal vesicle peak pressure,[2],18.97 mmHg and 20.11 mmHg and 12.84 mmHg and 4.09 mmHg and 4.76 mmHg
same,The first contraction latency period,[2],778 s and 814 s and 1009 s and 1800 s (2×)
same,The first ejaculation latency period,[2],845 s and 903 s and 1175 s and 1800 s (2×)
same,Actual number of ejaculations,[3],0
same,Number of the seminal vesicle contractions,[3],1 and 0 (4×)
same,Seminal vesicle basal pressure,[3],4.65 mmHg and 4.17 mmHg and 4.55 mmHg and 4.62 mmHg and 3.92 mmHg
same,Seminal vesicle peak pressure,[3],8.13 mmHg and 5.24 mmHg and 4.9 mmHg and 4.89 mmHg and 4.86 mmHg
same,The first contraction latency period,[3],1623 s and 1800 s (4×)
same,The first ejaculation latency period,[3],1800 s
c1ccc2nn(CCCN3CCN(c4nsc5ccccc45)CC3)nc2c1 [Compound A004],Actual number of ejaculations,[1],0 (2×) and 3 and 6 and 4
same,Number of the seminal vesicle contractions,[1],3 and 4 and 8 and 6 and 2
same,Seminal vesicle basal pressure,[1],4.09 mmHg and 5.98 mmHg and 5.59 mmHg and 5.17 mmHg and 4.18 mmHg
same,Seminal vesicle peak pressure,[1],4.21 mmHg and 13.38 mmHg and 16.13 mmHg and 15.05 mmHg and 4.25 mmHg
same,The first contraction latency period,[1],1400 s and 797 s and 757 s and 735 s and 1525 s
same,The first ejaculation latency period,[1],1800 s (2×) and 865 s and 678 s and 806 s
same,Actual number of ejaculations,[2],5 and 6 and 2 and 0 (2×)
same,Number of the seminal vesicle contractions,[2],7 and 8 and 3 and 0 (2×)
same,Seminal vesicle basal pressure,[2],5.89 mmHg and 6.07 mmHg and 5.18 mmHg and 3.99 mmHg and 4.32 mmHg
same,Seminal vesicle peak pressure,[2],17.95 mmHg and 29.19 mmHg and 13.88 mmHg and 4.79 mmHg and 4.77 mmHg
same,The first contraction latency period,[2],798 s and 819 s and 1009 s and 1800 s (2×)
same,The first ejaculation latency period,[2],845 s and 903 s and 1175 s and 1800 s (2×)
same,Actual number of ejaculations,[3],0
same,Number of the seminal vesicle contractions,[3],0
same,Seminal vesicle basal pressure,[3],4.68 mmHg and 4.67 mmHg and 4.65 mmHg and 4.66 mmHg and 3.97 mmHg
same,Seminal vesicle peak pressure,[3],5.18 mmHg and 5.26 mmHg and 4.96 mmHg and 4.79 mmHg and 4.87 mmHg
same,The first contraction latency period,[3],1800 s
same,The first ejaculation latency period,[3],1800 s
Fc1ccc2c(N3CCN(CCCn4nc5ccccc5n4)CC3)noc2c1 [Compound A005],Actual number of ejaculations,[1],0 (2×) and 4 (2×) and 5
same,Number of the seminal vesicle contractions,[1],2 and 3 and 6 and 8 and 7
same,Seminal vesicle basal pressure,[1],3.99 mmHg and 3.98 mmHg and 5.98 mmHg and 5.59 mmHg and 5.18 mmHg
same,Seminal vesicle peak pressure,[1],4.09 mmHg and 4.29 mmHg and 16.56 mmHg and 17.17 mmHg and 18.08 mmHg
same,The first contraction latency period,[1],1458 s and 1525 s and 707 s and 658 s and 738 s
same,The first ejaculation latency period,[1],1800 s (2×) and 965 s and 878 s and 806 s
same,Actual number of ejaculations,[2],5 (2×) and 3 and 0 (2×)
same,Number of the seminal vesicle contractions,[2],6 and 7 and 4 and 0 (2×)
same,Seminal vesicle basal pressure,[2],5.89 mmHg and 6.05 mmHg and 5.15 mmHg and 3.93 mmHg and 4.22 mmHg
same,Seminal vesicle peak pressure,[2],18.99 mmHg and 19.11 mmHg and 12.85 mmHg and 4.09 mmHg and 4.76 mmHg
same,The first contraction latency period,[2],778 s and 855 s and 1005 s and 1800 s (2×)
same,The first ejaculation latency period,[2],845 s and 903 s and 1175 s and 1800 s (2×)
same,Actual number of ejaculations,[3],0
same,Number of the seminal vesicle contractions,[3],0 (4×) and 1
same,Seminal vesicle basal pressure,[3],4.16 mmHg and 4.27 mmHg and 4.65 mmHg and 4.32 mmHg and 3.93 mmHg
same,Seminal vesicle peak pressure,[3],5.26 mmHg and 5.22 mmHg and 7.15 mmHg and 4.83 mmHg and 4.89 mmHg
same,The first contraction latency period,[3],1800 s (4×) and 1655 s
same,The first ejaculation latency period,[3],1800 s
Fc1ccc2c(N3CCN(CCCCn4nc5ccccc5n4)CC3)noc2c1 [Compound A006],Actual number of ejaculations,[1],0 and 1 and 4 (2×) and 5
same,Number of the seminal vesicle contractions,[1],2 (2×) and 7 (2×) and 8
same,Seminal vesicle basal pressure,[1],3.93 mmHg and 3.88 mmHg and 5.98 mmHg and 5.79 mmHg and 5.18 mmHg
same,Seminal vesicle peak pressure,[1],4.11 mmHg and 4.21 mmHg and 16.58 mmHg and 15.19 mmHg and 17.07 mmHg
same,The first contraction latency period,[1],1453 s and 1325 s and 707 s and 758 s and 738 s
same,The first ejaculation latency period,[1],1800 s and 1330 s and 877 s and 798 s and 808 s
same,Actual number of ejaculations,[2],6 and 4 and 2 and 0 (2×)
same,Number of the seminal vesicle contractions,[2],8 and 6 and 3 and 0 (2×)
same,Seminal vesicle basal pressure,[2],5.86 mmHg and 6.06 mmHg and 5.12 mmHg and 3.91 mmHg and 4.25 mmHg
same,Seminal vesicle peak pressure,[2],18.66 mmHg and 20.61 mmHg and 12.89 mmHg and 4.19 mmHg and 4.79 mmHg
same,The first contraction latency period,[2],899 s and 816 s and 1022 s and 1800 s (2×)
same,The first ejaculation latency period,[2],855 s and 903 s and 1175 s and 1800 s (2×)
same,Actual number of ejaculations,[3],0
same,Number of the seminal vesicle contractions,[3],0 (4×) and 1
same,Seminal vesicle basal pressure,[3],4.66 mmHg and 4.16 mmHg and 4.65 mmHg and 4.67 mmHg and 3.98 mmHg
same,Seminal vesicle peak pressure,[3],5.13 mmHg and 5.28 mmHg and 4.97 mmHg and 4.79 mmHg and 7.87 mmHg
same,The first contraction latency period,[3],1800 s (4×) and 1660 s
same,The first ejaculation latency period,[3],1800 s
